Measured values reported in patent publication US10273248B2, “Glucose uptake inhibitors” (Kadmon Corporation LLC, priority 2015, dated 2019).
Where two headings read alike, the source gives them in different places.

Tests used:
[1] = test system: HT1080 cells; format: cell-based
Description: (§1) Cell Proliferation and Cell Death Assays:
(§2) HT1080 cells (or other cell types) were plated in 96-well format at cell densities suitable for culture from 24-72 hrs. For IC50 of cellular proliferation, cells were fixed with TCA and stained with SRB to quantify relative viability. At the end of the specified assay time, the percentage of drug-treated cells was calculated relative to the DMSO control. For cell death assays, viability was assessed relative to the 0-hour timepoint

[2] = test system: MOLT-4; experiment: Proliferation assay, MOLT-4; format: cell-based; settings: Homo sapiens, 72 hrs
Description: (§3) As previously discussed, glucose is the major energy source for cancer cells and, compared to normal cells, cancer cells rely on increased rates of glycolysis for survival and cell growth. […] Table 2 summarizes these findings for multiple compounds:
as §1, §2

[3] = test system: Jurkat; experiment: Proliferation assay, Jurkat; format: cell-based; settings: Homo sapiens, 72 hrs
Description: as §3, §1, §2

[4] = test system: glycolysis in HT1080 cells; experiment: Glycolysis assay: oligomycin plus compound, cellular ATP by Cell Titer Glo; format: cell-based; settings: 10 μM oligomycin, one hour, class symbols
Method in brief: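 Confluent HT1080 cells treated 1 h with compound plus 10 μM oligomycin to block mitochondrial ATP, so remaining ATP reflects glycolysis. Cellular ATP read by Cell Titer-Glo luminescence; IC50 derived from dose-response curves.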

[5] = test system: U937; experiment: Proliferation assay, U937; format: cell-based; settings: Homo sapiens, U-937; 72 hrs
Description: as §3, §1, §2

[6] = test system: MOG-induced experimental autoimmune encephalitis (EAE); experiment: Mouse prophylactic MOG-EAE model; format: in vivo; settings: dosed orally day 3 to day 25, compared to vehicle control (FIG. 9)
Description: Mouse Prophylactic MOG-EAE Model:
Performed at Hooke laboratories. Briefly, mice were immunized with MOG peptide on day 0 and subsequently injected with pertussis toxin. Compounds were dosed orally beginning on day 3 continuing until day 25.

[7] = test system: HT1080 cells; experiment: Cell proliferation assay, single agents and combinations, HT1080; format: cell-based; settings: Homo sapiens; HT-1080 cells; read-out: IC50 as a single agent
Description: as §1, §2

[8] = HT1080 cells, 10 μM Ex. 31 or 25 μM H2O2

| SMILES | IC50 [3] | IC50 ([4]; Homo sapiens, HT-1080, 1 h) | other results |
| --- | --- | --- | --- |
| OO [Example H2O2, H2O2, reference compound] |  |  | cell death as single agents [1, 8]: neither 10 μM Ex. 31 nor 25 μM H2O2 caused cell death |
| CC(C)NC(=O)COc1cccc(-c2nc3c(c(Nc4ccc(-c5cn[nH]c5)cc4)n2)COC3)c1 [Example 1, 2-(3-(4-((4-(1H-pyrazol-4-yl)phenyl)amino)-5,7-dihydrofuro[3,4-d]pyrimidin-2-yl)phenoxy)-N-isopropylacetamide] | 630 nM | 10 to 100 nM | IC50 [2]: 1620 nM |
| O=C(COc1cccc(-c2nc(Nc3ccc(-c4cn[nH]c4)cc3)c3occc3n2)c1)NC1CC1 [Example 21] | 9400 nM | 501 to 1000 nM |  |
| CC(C)NC(=O)COc1cccc(-c2nc(Nc3ccc(-c4cn[nH]c4)cc3)c3sccc3n2)c1 [Example 7, 2-(3-(4-((4-(1H-pyrazol-4-yl)phenyl)amino)thieno[3,2-d]pyrimidin-2-yl)phenoxy)-N-isopropylacetamide] | 500 nM | 10 to 100 nM | IC50 [2]: 823 nM; onset and end clinical score [6]: either delayed the onset or lowered the end clinical score; IC50 [5]: 388 nM |
| O=C(COc1cccc(-c2nc3c(c(Nc4ccc(-c5cn[nH]c5)cc4)n2)COC3)c1)NC1CCC1 [Example 31] | 294 nM | 10 to 100 nM | IC50 [2]: 385 nM; cell death, combination with H2O2 ([1]; HT1080 cells, 10 μM Ex. 31 + 25 μM H2O2 (FIG. 5B)): ~45%; cell death as single agents [1, 8]: neither 10 μM Ex. 31 nor 25 μM H2O2 caused cell death; cell death as single agents ([1]; HT-1080 cells): neither Ex. 31 nor ABT-737 (10 M) caused cell death; cell death, combination with ABT-737 ([1]; HT-1080 cells, 72 hours, Ex. 31 + ABT-737 (FIG. 4B)): ~60%; IC50 [5]: 256 nM |
| CN(C)CC[C@H](CSc1ccccc1)Nc1ccc(S(=O)(=O)NC(=O)c2ccc(N3CCN(Cc4ccccc4-c4ccc(Cl)cc4)CC3)cc2)cc1[N+](=O)[O-] [ABT-737, reference compound] |  |  | IC50 [7]: ~8500 nM; cell death as single agents ([1]; HT-1080 cells): neither Ex. 31 nor ABT-737 (10 M) caused cell death |
| CC(C)NC(=O)COc1cccc(-c2nc(Nc3ccc4[nH]ncc4c3)c3ncn(C)c3n2)c1 [Example 13] |  | > 1000 nM |  |
| O=C(Nc1cccc(-c2nc(Nc3ccc(-c4cn[nH]c4)cc3)c3sccc3n2)c1)c1cccnc1 [Example 43, N-(3-(4-((4-(1H-pyrazol-4-yl)phenyl)amino)thieno[3,2-d]pyrimidin-2-yl)phenyl)nicotinamide] |  |  | IC50 [4]: 101 to 250 nM |
| CC(C)NC(=O)COc1cccc(-c2nc(Nc3ccc4[nH]ncc4c3)c3ccsc3n2)c1 [Example 17] |  | > 1000 nM |  |
| CC(C)NC(=O)COc1cccc(-c2nc3c(c(Nc4ccc5[nH]ncc5c4)n2)COC3)c1 [Example 11, 2-(3-(4-((1H-indazol-5-yl)amino)-5,7-dihydrofuro[3,4-d]pyrimidin-2-yl)phenoxy)-N-isopropylacetamide] |  | > 1000 nM |  |
| CC(C)NC(=O)COc1cccc(-c2nc(Nc3ccc(-c4cn[nH]c4)cc3)c3ncn(C)c3n2)c1 [Example 5, 2-(3-(6-((4-(1H-pyrazol-4-yl)phenyl)amino)-9-methyl-9H-purin-2-yl)phenoxy)-N-isopropylacetamide] | 397 nM | 251 to 500 nM |  |

Further lines, with some results ahead:

| IC50 [3] | IC50 ([4]; Homo sapiens, HT-1080, 1 h) | SMILES | other results |
| --- | --- | --- | --- |
| 170 nM | 10 to 100 nM | O=C(COc1cccc(-c2nc3c(c(Nc4ccc(-c5cn[nH]c5)cc4)n2)COC3)c1)NC1CCCC1 [Example 32] | IC50 [2]: 264 nM; IC50 [5]: 123 nM |
| 162 nM | 101 to 250 nM | O=C(COc1cccc(-c2nc(Nc3ccc(-c4cn[nH]c4)cc3)c3sccc3n2)c1)NC1CCC1 [Example 23] |  |
| 216 nM | 10 to 100 nM | O=C(COc1cccc(-c2nc(Nc3ccc(-c4cn[nH]c4)cc3)c3sccc3n2)c1)NC1CCCC1 [Example 24] | IC50 [2]: 417 nM; IC50 [5]: 234 nM |
|  | 10 to 100 nM | CCC(C)(C)NC(=O)COc1cccc(-c2nc3c(c(Nc4ccc(-c5cn[nH]c5)cc4)n2)CN(C(C)=O)CC3)c1 [Example 148, 2-(3-(4-((4-(1H-pyrazol-4-yl)phenyl)amino)-6-acetyl-5,6,7,8-tetrahydropyrido[4,3-d]pyrimidin-2-yl)phenoxy)-N-(tert-pentyl)acetamide] |  |
|  | 10 to 100 nM | CC(=O)N1Cc2nc(-c3cccc(OCC(=O)NC(C)(C)C)c3)nc(Nc3ccc(-c4cn[nH]c4)cc3)c2C1 [Example 142, 2-(3-(4-((4-(1H-pyrazol-4-yl)phenyl)amino)-6-acetyl-6,7-dihydro-5H-pyrrolo[3,4-d]pyrimidin-2-yl)phenoxy)-N-(tert-butyl)acetamide] |  |
|  | 10 to 100 nM | CC(C)C(=O)N1CCc2nc(-c3cccc(OCC(=O)NC4CCC4)c3)nc(Nc3ccc(-c4cn[nH]c4)cc3)c2C1 [Example 152, 2-(3-(4-((4-(1H-pyrazol-4-yl)phenyl)amino)-6-isobutyryl-5,6,7,8-tetrahydropyrido[4,3-d]pyrimidin-2-yl)phenoxy)-N-cyclobutylacetamide] |  |
